Test results published in ChEMBL document CHEMBL6096697, “Structure-Guided Discovery of Novel N4-(Substituted Thiazol-2-yl)-N2-(4-Substituted phenyl)pyrimidine-2,4-Diamines as Potent CDK2 and CDK9 Dual Inhibitors with High Oral Bioavailability” (J Med Chem, 2025).

Assays:
HeLa [1] = assay: Induction of apoptosis in human HeLa cells assessed as early apoptotic cells at 0.9 uM incubated for 24 hrs by PI staining based flow cytometry (reference value: 0.8 %); assay type: functional
HeLa [2] = assay: Induction of apoptosis in human HeLa cells assessed as necrotic cells at 0.9 uM incubated for 24 hrs by PI staining based flow cytometry (reference value: 25.5 %); assay type: functional
[3] = MRT (0 to infinity) in Sprague-Dawley rat at 10 mg/kg, po measured for 36 hrs by MRM analysis; assay type: ADME, organism-based; settings: in vivo
MCF7 = assay: Antiproliferative activity against human MCF7 cells assessed as cell growth inhibition incubated for 48 hrs by MTT assay; assay type: functional, cell-based; settings: MCF7, 48 h
HCT-116 [4] = assay: Induction of apoptosis in human HCT-116 cells assessed as necrotic cells at 0.2 uM incubated for 24 hrs by PI staining based flow cytometry (reference value: 18.9 %); assay type: functional
[5] = Toxicity in Balb/c-nu nude mouse xenografted with human HCT-116 cells assessed as toxic reactions at 35 to 70 mg/kg/day, po treated for 30 days; assay type: organism-based; settings: in vivo, 720 h, dose 35-70 mg/kg/day, time 30 day
HCT-116 [6] = assay: Effect on Bax level in human HCT-116 cells upto 0.8 uM incubated for 24 hrs by Western blot analysis; assay type: functional, cell-based
HCT-116 [7] = assay: Induction of cell cycle arrest at G2/M phase in human HCT-116 cells assessed as decrease in cyclin B1 level incubated for 48 hrs by Western blot analysis; assay type: functional, cell-based; settings: dose <= 0.8 µM
HeLa [8] = assay: Induction of apoptosis in human HeLa cells assessed as viable cells at 1.8 uM incubated for 24 hrs by PI staining based flow cytometry (reference value: 68.9 %); assay type: functional; settings: read-out: Activity
[9] = Clearance in Sprague-Dawley rat at 2 mg/kg, iv measured for 36 hrs by MRM analysis; assay type: ADME, organism-based; settings: in vivo

MRT inf [3]: 7 h | IC50 (MCF7): 3.64 µM | CL [9]: 1130 mL/min/kg
SMILES: Cc1cnc(Nc2ccc(S(N)(=O)=O)cc2)nc1Nc1nccs1
Activity (HeLa [1]): 65.8% | Activity (HeLa [2]): 0.81% | Activity (HCT-116 [4]): 3.6% | Activity [5]: Non-toxic | Activity (HCT-116 [6]): No effect | Activity (HCT-116 [7]): Dose-dependent-effect | viability at 1.8 µM (HeLa [8]): 11.3%
